From patent US12275731B2, “Azaindole inhibitors of wild-type and mutant forms of LRRK2” (DANA-FARBER CANCER INSTITUTE, INC., priority 2018, dated 2025)

Experiments:
Assay in all cases: KinomeScan profiling
Type in all cases: binding
[1] = biological target: T1, EPHB2 (Homo sapiens, UniProt P29323); settings: EPHB2, 1 μM; read-out: % control
T1 sequence (P29323 19-1055): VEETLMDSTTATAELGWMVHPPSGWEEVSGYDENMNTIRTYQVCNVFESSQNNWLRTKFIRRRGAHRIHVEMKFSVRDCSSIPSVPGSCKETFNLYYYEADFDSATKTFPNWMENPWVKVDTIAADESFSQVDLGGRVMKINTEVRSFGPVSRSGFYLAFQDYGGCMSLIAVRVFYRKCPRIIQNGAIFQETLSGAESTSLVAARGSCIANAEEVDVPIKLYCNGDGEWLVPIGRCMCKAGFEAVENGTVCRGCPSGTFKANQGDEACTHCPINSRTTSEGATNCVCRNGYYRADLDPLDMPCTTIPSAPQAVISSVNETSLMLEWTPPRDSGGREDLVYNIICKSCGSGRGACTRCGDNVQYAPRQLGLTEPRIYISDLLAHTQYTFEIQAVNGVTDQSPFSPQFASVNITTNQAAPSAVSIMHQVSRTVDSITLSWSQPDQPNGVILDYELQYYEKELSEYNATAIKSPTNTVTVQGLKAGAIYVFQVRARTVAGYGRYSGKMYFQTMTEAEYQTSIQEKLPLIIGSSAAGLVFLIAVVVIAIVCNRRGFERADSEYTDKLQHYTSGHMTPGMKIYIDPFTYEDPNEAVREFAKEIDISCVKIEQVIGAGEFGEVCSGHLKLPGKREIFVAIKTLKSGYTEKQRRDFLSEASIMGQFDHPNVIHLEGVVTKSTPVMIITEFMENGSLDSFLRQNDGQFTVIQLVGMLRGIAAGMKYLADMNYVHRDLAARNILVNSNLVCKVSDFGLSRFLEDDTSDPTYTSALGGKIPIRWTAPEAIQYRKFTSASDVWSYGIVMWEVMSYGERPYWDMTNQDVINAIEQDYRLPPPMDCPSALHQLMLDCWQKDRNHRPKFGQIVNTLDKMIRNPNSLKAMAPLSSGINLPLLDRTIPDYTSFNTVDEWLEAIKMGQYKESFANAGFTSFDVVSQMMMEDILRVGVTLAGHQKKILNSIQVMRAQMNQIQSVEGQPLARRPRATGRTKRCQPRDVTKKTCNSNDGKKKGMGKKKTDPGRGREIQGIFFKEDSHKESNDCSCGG
How it was run: (§1)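 Single-point competition binding screen: 1 μM, DMSO, 468 kinases. Results reported as % control from RLU, normalised to DMSO and positive-control wells. Activity threshold: <35% control.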

[2] = biological target: CLK4 (Homo sapiens, UniProt Q9HAZ1); settings: CLK4, 1 μM; read-out: % control
Chain of CLK4 (Q9HAZ1 whole entry): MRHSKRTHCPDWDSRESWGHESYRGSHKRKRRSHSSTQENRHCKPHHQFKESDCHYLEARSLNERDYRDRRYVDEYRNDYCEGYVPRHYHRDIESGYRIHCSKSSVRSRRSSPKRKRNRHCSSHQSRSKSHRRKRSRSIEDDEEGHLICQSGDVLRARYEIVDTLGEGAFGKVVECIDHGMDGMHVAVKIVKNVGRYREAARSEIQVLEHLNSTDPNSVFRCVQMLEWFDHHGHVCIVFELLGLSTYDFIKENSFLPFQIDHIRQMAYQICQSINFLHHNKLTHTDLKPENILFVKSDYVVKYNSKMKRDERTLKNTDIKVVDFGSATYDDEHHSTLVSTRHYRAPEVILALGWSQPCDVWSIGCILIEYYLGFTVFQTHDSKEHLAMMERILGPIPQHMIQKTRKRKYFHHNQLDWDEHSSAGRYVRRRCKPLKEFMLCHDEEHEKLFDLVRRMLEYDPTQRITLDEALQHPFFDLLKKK
How it was run: as §1

[3] = biological target: T2, ABL1(T315I)-nonphosphorylated (Homo sapiens, UniProt P00519, T315I); settings: read-out: % control
T2 construct: purchased KinomeScan®
How it was run: as §1

[4] = biological target: T3, BRSK2 (Homo sapiens, UniProt Q8IWQ3); settings: BRSK2, 1 μM; read-out: % control
T3 sequence (Q8IWQ3 1-736): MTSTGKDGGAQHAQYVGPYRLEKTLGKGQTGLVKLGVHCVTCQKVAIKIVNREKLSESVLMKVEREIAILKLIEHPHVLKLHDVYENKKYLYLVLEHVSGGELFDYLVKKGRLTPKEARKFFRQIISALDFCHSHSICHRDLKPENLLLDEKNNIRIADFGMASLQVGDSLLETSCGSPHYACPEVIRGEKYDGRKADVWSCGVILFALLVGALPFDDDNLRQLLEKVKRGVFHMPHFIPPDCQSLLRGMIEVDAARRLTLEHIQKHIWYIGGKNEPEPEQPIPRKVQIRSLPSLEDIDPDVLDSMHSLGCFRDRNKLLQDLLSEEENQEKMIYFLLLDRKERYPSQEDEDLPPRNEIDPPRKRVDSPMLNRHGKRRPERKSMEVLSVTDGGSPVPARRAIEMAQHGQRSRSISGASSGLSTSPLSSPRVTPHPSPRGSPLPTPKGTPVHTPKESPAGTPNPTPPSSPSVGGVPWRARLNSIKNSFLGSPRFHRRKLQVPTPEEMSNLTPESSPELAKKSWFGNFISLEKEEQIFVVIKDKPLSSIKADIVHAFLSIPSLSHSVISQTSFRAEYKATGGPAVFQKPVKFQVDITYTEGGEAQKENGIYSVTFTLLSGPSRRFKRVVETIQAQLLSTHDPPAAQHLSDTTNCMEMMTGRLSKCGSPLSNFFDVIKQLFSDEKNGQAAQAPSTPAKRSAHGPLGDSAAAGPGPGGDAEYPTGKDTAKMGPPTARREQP
How it was run: as §1

[5] = biological target: T4, CDKL2 (Homo sapiens, UniProt Q92772); settings: CDKL2, 1 μM; read-out: % control
T4 sequence (Q92772 1-493): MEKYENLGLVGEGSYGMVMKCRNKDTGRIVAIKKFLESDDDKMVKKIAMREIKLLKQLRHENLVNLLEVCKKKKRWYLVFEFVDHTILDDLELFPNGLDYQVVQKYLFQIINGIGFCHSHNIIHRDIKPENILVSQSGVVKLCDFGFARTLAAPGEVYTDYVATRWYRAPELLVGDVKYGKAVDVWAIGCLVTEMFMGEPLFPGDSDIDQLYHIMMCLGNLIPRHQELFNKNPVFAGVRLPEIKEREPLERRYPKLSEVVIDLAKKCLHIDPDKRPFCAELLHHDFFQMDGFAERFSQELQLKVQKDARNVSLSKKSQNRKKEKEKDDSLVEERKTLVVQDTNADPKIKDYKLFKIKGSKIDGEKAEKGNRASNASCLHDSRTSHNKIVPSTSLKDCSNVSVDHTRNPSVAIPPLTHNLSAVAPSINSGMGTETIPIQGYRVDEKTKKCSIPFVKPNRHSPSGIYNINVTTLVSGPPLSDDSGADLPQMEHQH
How it was run: as §1

Structure (SMILES) | remaining binding at 1 µM [1] [%] | remaining binding at 1 µM [2] [%] | remaining binding at 1 µM [3] [%] | remaining binding at 1 µM [4] [%] | remaining binding at 1 µM [5] [%]
CNc1c(-c2cnn([C@H]3CCN(C(C)=O)C[C@@H]3F)c2)cnc2[nH]cc(Cl)c12 [Compound 77, 1-((3S,4S)-4-(4-(3-chloro-4-(methylamino)-1H-pyrrolo[2,3-b]pyridin-5-yl)-1H-pyrazol-1-yl)-3-fluoropiperidin-1-yl)ethan-1-one] | 98 | 72 | 100 | 100 | 95
CNc1c(-c2ccc(C(=O)N3CCC(N4CCOCC4)CC3)cc2)cnc2[nH]cc(Cl)c12 [Compound 96, (4-(3-chloro-4-(methylamino)-1H-pyrrolo[2,3-b]pyridin-5-yl)phenyl)(4-morpholinopiperidin-1-yl)methanone] | 97 | 11 | 100 | 95 | 97
O=C(c1ccc(-c2cnc3[nH]cc(Cl)c3c2NC2CCCC2)cc1)N1CCC(N2CCOCC2)CC1 [Compound 101, (4-(3-chloro-4-(cyclopentylamino)-1H-pyrrolo[2,3-b]pyridin-5-yl)phenyl)(4-morpholinopiperidin-1-yl)methanone] | 97 | 42 | 85 | 94 | 100
